The test system of assay [1] is HepG2. As to the kind of experiment: Cytotoxicity against human HepG2 Cells after 72 hrs by MTT assay. The format is functional, cell-based. The conditions noted are these: HepG2, 72 h.
Assay [2] is described as follows: Anticancer activity against human LX2 cells after 72 hrs by MTT assay. It counts as functional, cell-based. The conditions noted are these: LX-2, 72 h.
The test system of assay [3] is SMMC-7721. Description: Anticancer activity against human SMMC7721 cells after 72 hrs by MTT assay. It counts as functional, cell-based. The settings on record: SMMC-7721, 72 h. In general terms: Formazan colour is commonly taken as a measure of viable cells.
In assay [4] the test system is MDA-MB-231. As to the kind of experiment: Anticancer activity against human MDA-MB-231 cells after 72 hrs by MTT assay. It counts as functional, cell-based. The settings on record: MDA-MB-231, 72 h.
In assay [5] the test system is HCT-116. As to the kind of experiment: Cytotoxicity against human HCT116 Cells. It counts as functional, cell-based.
The test system of assay [6] is HepG2. Description: Cytotoxicity against human HepG2 Cells. It counts as functional, cell-based.
The subject of assay [7] is AGS. Description: Cytotoxicity against human AGS Cells. The format is functional, cell-based.
Assay [8] has as its system HeLa. As to the kind of experiment: Cytotoxicity against human HeLa Cells. It counts as functional, cell-based.
Assay [9] has as its system HepG2. Description: Cytotoxicity against human HepG2 Cells by MTT/Trypan Blue Exclusion Assay. It counts as functional, cell-based.
Assay [10] relates to Caco-2. As to the kind of experiment: Cytotoxicity against human Caco2 Cells after 72 hrs by MTT assay. The format is functional, cell-based. The conditions noted are these: Caco-2, 72 h.
Assay [11] concerns EA.hy 926. Description: Cytotoxicity against human EAhy926 Cells after 72 hrs by MTT assay. It counts as functional, cell-based. The conditions noted are these: EA.hy 926, 72 h.
The subject of assay [12] is HT-29. Description: Cytotoxicity against human HT-29 Cells after 72 hrs by MTT assay. The settings on record: HT-29, 72 h. It counts as functional, cell-based.
For assay [13], the system named is CHO-K1. As to the kind of experiment: Cytotoxicity against […] Cells after 72 hrs by MTT assay. It counts as functional, cell-based. The settings on record: Cricetulus griseus, CHO-K1, 72 h.
The nature of assay [14]: Cytotoxicity against mitoxantrone resistant […] cells expressing BCRP after 15 mins by fluorescence assay. The conditions noted are these: Canis lupus familiaris, MDCK2, 0.25 h. It counts as functional, cell-based.
Assay [15] relates to HT-29. Description: Cytotoxicity against human HT-29 Cells. It counts as functional, cell-based.
Assay [16] has as its system MIA PaCa-2. As to the kind of experiment: Cytotoxicity against human MIAPaCa2 cells by MTT assay. The format is functional, cell-based.
The test system of assay [17] is MCF7. As to the kind of experiment: Cytotoxicity against human MCF7 cells by MTT assay. It counts as functional, cell-based.
In assay [18] the test system is HT-29. Description: Cytotoxicity against human HT-29 cells by MTT assay. It counts as functional, cell-based.
The test system of assay [19] is PC-3. Description: Cytotoxicity against human PC3 cells by MTT assay. It counts as functional, cell-based.
The test system of assay [20] is NCI-H460. Description: Cytotoxicity against human H460 cells by MTT assay. The format is functional, cell-based.
Assay [21] concerns PANC-1. As to the kind of experiment: Cytotoxicity against human PANC1 cells by MTT assay. It counts as functional, cell-based.
For assay [22], the system named is A549. As to the kind of experiment: Cytotoxicity against human A549 Cells by MTT assay. It counts as functional, cell-based.
In assay [23] the test system is MCF7. Description: Cytotoxicity against human MCF7 Cells after 48 hrs by MTS assay. The settings on record: MCF7, 48 h. The format is functional, cell-based.
Assay [24] is described as follows: Cytotoxicity against human CCD-1059SK Cells after 48 hrs by MTS assay. It counts as functional.
Assay [25] relates to KBM5. Description: Growth inhibition of human KBM5 cells relative to control. It counts as functional.
In assay [26] the test system is HCT-116. Description: Growth inhibition of human HCT116 cells relative to control. The format is functional.
The subject of assay [27] is MCF7. As to the kind of experiment: Cytotoxicity against human MCF7 Cells after 48 hrs by neutral red dye-based assay. It counts as functional, cell-based. The conditions noted are these: MCF7, 48 h.
Assay [28] relates to HCT-116. Description: Antitumor activity against human HCT116 cells after 72 hrs by FMCA method. The format is functional, cell-based. The conditions noted are these: HCT-116, 72 h, pooled result: one value given for 5 cell lines, strains, targets or settings.
Assay [29] has as its system AGS. Description: Cytotoxicity against human AGS Cells by MTT assay. It counts as functional, cell-based.
In assay [30] the test system is A549. Description: Cytotoxicity against human A549 Cells after 24 hrs by MTT assay. It counts as functional, cell-based. The settings on record: A549, 24 h.
Assay [31] has as its system MCF7. As to the kind of experiment: Cytotoxicity against human MCF7 cells. It counts as functional, cell-based.
The test system of assay [32] is MDA-MB-231. Description: Cytotoxicity against human MDA-MB-231 cells. It counts as functional, cell-based.
Assay [33] relates to SW-620. As to the kind of experiment: Cytotoxicity against human SW620 Cells. The format is functional, cell-based.

A word on the IC50: it is the concentration at which inhibition is half-maximal. Consider `COc1cc(/C=C/C(=O)CC(=O)/C=C/c2ccc(OC(=O)C(N)CC[Se]C)c(OC)c2)ccc1O` (stereo unspecified), for which the IC50 in assay [1] was determined as 0.31 µM; in assay [2], 0.62 µM; in assay [3], 0.18 µM; in [4] it was 0.52 µM.

With `COc1cc(/C=C/C(=O)CC(=O)/C=C/c2ccc(OC3O[C@H](CO)[C@@H](O)[C@H](O)[C@H]3O)c(OC)c2)ccc1O` (stereo partly specified), the 50% inhibitory concentration (IC50) in [5] was found to be 5.4 µM; in [6], 18.6 µM; in [7], 5.86 µM; in [8] it was 12.5 µM.

In assay [9], `COc1cc(CCC2=NC(=S)N=C(CCc3ccc(O)c(OC)c3)C2=Cc2coc3c(OC)c4occc4c(OC)c3c2=O)ccc1O` gave a half-maximal inhibitory concentration (IC50) of 23 µM.

In the case of `O=C(/C=C(O)/C=C/c1ccc[nH]1)/C=C/c1ccc[nH]1`, the IC50 in assay [1] was 8.2 µM; in [10], 7.5 µM; in assay [11] it was 8.3 µM; in assay [12] it was 8.9 µM; in [13], 6.9 µM.

As to `COc1cc(F)c(/C=C2\CNC/C(=C\c3cc(OC)c(OC)cc3F)C2=O)cc1OC`, the IC50 in assay [14] stood at 5.2 µM.

Take `COc1cc(/C=C/C(=O)CC(=O)/C=C/c2ccc(OC3O[C@H](CO)[C@@H](O)[C@H](O)[C@H]3O)c(OC)c2)ccc1OC1O[C@H](CO)[C@@H](O)[C@H](O)[C@H]1O` (stereo partly specified): half-maximal inhibition in assay [15] (IC50) required 41.6 µM.

`CCOC(OCC)c1ccc(CC2CN(C)CC(Cc3ccc(C(OCC)OCC)cc3)C2=NO)cc1` (stereo unspecified): the 50% inhibitory concentration (IC50) in assay [16] worked out at 0.4 µM; in assay [17] it was 0.2 µM; in assay [18], 0.4 µM; in assay [19], 0.2 µM; in [20], 0.2 µM; in [21] it was 0.4 µM. Besides, the IC50 in [22] was 0.3 µM.

Regarding `COc1cc(/C=C/C(=O)N/N=C/c2ccc(O)c(OC)c2)ccc1O`, the IC50 in [23] was determined as 43 µM; in assay [24], 74.6 µM.

Turning to `COc1cc(/C=C/C(=O)/C=C/c2ccc(OCC(=O)Nc3ccccc3)c(OC)c2)ccc1OCC(=O)Nc1ccccc1`, the “growth inhibition (GI)” value in assay [25] is 86.76%; in assay [26], 60.13%.

Consider `COc1ccc(NC(=O)COc2ccc(/C=C/C(=O)/C=C/c3ccc(OCC(=O)Nc4ccc(OC)cc4)c(OC)c3)cc2OC)cc1`, for which the entries for the “growth inhibition (GI)” value in assay [25] and in assay [26] were 83.63% and 57.96%, respectively.

For the molecule `COc1cc(/C=C/C2=NN(c3nc(/N=C4\CC[C@H]5[C@@H]6CC[C@H]7C[C@@H](OC(C)=O)CC[C@]7(C)[C@H]6CC[C@]45C)cc(=O)[nH]3)C(/C=C/c3ccc(O)c(OC)c3)C2)ccc1O` (stereo partly specified), in assay [27], the half-inhibitory concentration (IC50) stood at 18 µM.

In the case of `CCCC(=O)Oc1ccc(/C=C2\CN(C(=O)c3ccccc3)C/C(=C\c3ccc(OC(=O)CCC)c(OCC)c3)C2=O)cc1OCC`, in assay [28], the IC50 amounted to 0.19 µM. This lies in the sub-micromolar range.

As to `COc1cc(/C=C/C(=O)/C(CNc2ccc(S(N)(=O)=O)cc2)=C(O)/C=C/c2ccc(O)c(OC)c2)ccc1O`, the IC50 in assay [29] was 10.2 µM; in [22], 1.29 µM.

In turn, `CCCC(=O)Oc1ccc(/C=C2\CN(C(C)=O)C/C(=C\c3ccc(OC(=O)CCC)c(OC)c3)C2=O)cc1OC` displayed an IC50 in [28] of 0.246 µM.

In the case of `O=C(/C=C/c1ccccc1C(F)(F)F)/C=C/c1ccccc1C(F)(F)F`, in [30], the half-inhibitory concentration (IC50) amounted to 3.1 µM.

`COc1ccc(OC)c(/C=C/C(=O)/C=C/c2cc(OC)ccc2OC)c1`: the 50% inhibitory concentration (IC50) in [31] is 3.02 µM; in assay [32] it was 1.52 µM; in assay [8], 14 µM.

`O=C(/C=C(\O)c1ccccc1)c1ccccc1O` [2',beta-DIHYDROXYCHALCONE]: the results for the IC50 in assay [15] and in [33] were 7.5 µM and 14.5 µM, respectively.

`CC/C(=C(\c1ccccc1)c1ccc(OCCN(C)C)cc1)c1ccccc1` [TAMOXIFEN] returned a 50% inhibitory concentration (IC50) in assay [27] of 4 µM.

For the origin of these results see ChEMBL document CHEMBL4364241, “Developments in the anticancer activity of structurally modified curcumin: An up-to-date review” (Eur J Med Chem, 2019).
